From patent US8952162B2, “Triazolopyridines as phosphodiesterase inhibitors for treatment of dermal diseases” (Leo Pharma A/S, priority 2008, dated 2015)

target: Human recombinant PDE4 (Genbank accession no NM—006203) (Homo sapiens, UniProt Q08499); test: PDE4 assay (SPA, cAMP cleavage); type: biochemical; conditions: Example 52; human recombinant PDE4, 1 hour incubation, cAMP 1×10^-5M, test compound up to 10 μM; read-out: PDE4 IC50 range
Description: At the end of the incubation, the cleavage of the substrate was evaluated by the binding of the AMP product to SPA beads, which generate chemoluminescence when bound to the radioactive tracer. The AMP product inhibited the binding of the radioactive tracer to the beads, and the luminescent signal was competed.

Sequence of Human recombinant PDE4 (Genbank accession no NM—006203) (Q08499 1-673 isoform Q08499-2): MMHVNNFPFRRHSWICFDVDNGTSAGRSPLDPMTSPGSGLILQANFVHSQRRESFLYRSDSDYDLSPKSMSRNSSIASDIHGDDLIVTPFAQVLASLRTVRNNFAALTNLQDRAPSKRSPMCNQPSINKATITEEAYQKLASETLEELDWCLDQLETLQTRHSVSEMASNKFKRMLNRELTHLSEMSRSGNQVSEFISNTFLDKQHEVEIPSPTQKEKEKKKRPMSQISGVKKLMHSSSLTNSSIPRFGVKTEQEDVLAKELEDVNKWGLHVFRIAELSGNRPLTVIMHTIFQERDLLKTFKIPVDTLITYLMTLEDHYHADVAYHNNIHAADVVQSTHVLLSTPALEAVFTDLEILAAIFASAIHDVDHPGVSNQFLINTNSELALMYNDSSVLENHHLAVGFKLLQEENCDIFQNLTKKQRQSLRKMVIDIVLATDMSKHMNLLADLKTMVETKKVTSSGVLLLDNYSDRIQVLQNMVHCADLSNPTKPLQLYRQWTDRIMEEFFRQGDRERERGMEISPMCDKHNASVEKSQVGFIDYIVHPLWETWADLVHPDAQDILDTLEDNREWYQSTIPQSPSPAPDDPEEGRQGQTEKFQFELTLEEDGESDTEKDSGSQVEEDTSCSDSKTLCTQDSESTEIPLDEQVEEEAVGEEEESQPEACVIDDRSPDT

Compared with `COc1ccc(-c2ccc(OC)c3nc(C4CC4)nn23)cc1` [Compound 103, 2-Cyclopropyl-8-methoxy-5-(4-methoxy-phenyl)-[1,2,4]triazolo[1,5-a]pyridine], `COCCOc1ccc(-c2ccc(OC)c3nc(C4CC4)nn23)cc1` [Compound 122, 2-Cyclopropyl-8-methoxy-5-[4-(2-methoxy-ethoxy)-phenyl]-[1,2,4]triazolo[1,5-a]pyridine] is higher in IC50: less than 500 nM for the first, greater than 1000 nM for the second.

First: COc1ccc(-c2ccc(C(F)(F)F)cc2)n2nc(C3CC3)nc12 [Compound 104, 2-Cyclopropyl-8-methoxy-5-(4-trifluoromethyl-phenyl)-[1,2,4]triazolo[1,5-a]pyridine]
Second: COc1ccc(-c2ccc(F)cc2)n2nc(C3CC3)nc12 [Compound 131, 2-Cyclopropyl-5-(4-fluoro-phenyl)-8-methoxy-[1,2,4]triazolo[1,5-a]pyridine]
The IC50 of the first is higher: 500 to 1000 nM for the first, less than 500 nM for the second. The second is the more potent here.

`COc1ccc(-c2ccc(OC)c3nc(C4CC4)nn23)cc1OC` [Compound 105, 2-Cyclopropyl-5-(3,4-dimethoxy-phenyl)-8-methoxy-[1,2,4]triazolo[1,5-a]pyridine] and `COc1cccc(-c2ccc(OC)c3nc(C4CC4)nn23)c1` [Compound 109, 2-Cyclopropyl-8-methoxy-5-(3-methoxy-phenyl)-[1,2,4]triazolo[1,5-a]pyridine] cannot be ordered by IC50: less than 500 nM for the first, less than 500 nM for the second.

Compared with `COc1ccc(-c2cccs2)n2nc(C3CC3)nc12` [Compound 106, 2-Cyclopropyl-8-methoxy-5-thiophen-2-yl-[1,2,4]triazolo[1,5-a]pyridine], `COc1ccc(-c2ccccc2F)n2nc(C3CC3)nc12` [Compound 121, 2-Cyclopropyl-5-(2-fluoro-phenyl)-8-methoxy-[1,2,4]triazolo[1,5-a]pyridine] is higher in IC50: less than 500 nM for the first, 500 to 1000 nM for the second.

`COc1ccc(-c2cccc(NC(C)=O)c2)n2nc(C3CC3)nc12` [Compound 107, N-[3-(2-Cyclopropyl-8-methoxy-[1,2,4]triazolo[1,5-a]pyridin-5-yl)-phenyl]-acetamide] and `COc1ccc(-c2ccc(NC(C)=O)cc2)n2nc(C3CC3)nc12` [Compound 116, N-[4-(2-Cyclopropyl-8-methoxy-[1,2,4]triazolo[1,5-a]pyridin-5-yl)-phenyl]-acetamide] cannot be ordered by IC50: greater than 1000 nM for the first, greater than 1000 nM for the second.

`COc1ccc(-c2cccc(OC(F)(F)F)c2)n2nc(C3CC3)nc12` [Compound 108, 2-Cyclopropyl-8-methoxy-5-(3-trifluoromethoxy-phenyl)-[1,2,4]triazolo[1,5-a]pyridine] and `COc1ccc(-c2cccc(F)c2)n2nc(C3CC3)nc12` [Compound 125, 2-Cyclopropyl-5-(3-fluoro-phenyl)-8-methoxy-[1,2,4]triazolo[1,5-a]pyridine] cannot be ordered by IC50: less than 500 nM for the first, less than 500 nM for the second.

`COc1ccc(-c2ccc(C(C)=O)s2)n2nc(C3CC3)nc12` [Compound 110, 1-[5-(2-Cyclopropyl-8-methoxy-[1,2,4]triazolo[1,5-a]pyridin-5-yl)-thiophen-2-yl]-ethanone] and `COc1ccc(-c2ccc(C(N)=O)cc2)n2nc(C3CC3)nc12` [Compound 123, 4-(2-Cyclopropyl-8-methoxy-[1,2,4]triazolo[1,5-a]pyridin-5-yl)-benzamide] cannot be ordered by IC50: less than 500 nM for the first, less than 500 nM for the second.

First: COc1ccc(-c2cncnc2)n2nc(C3CC3)nc12 [Compound 111, 2-Cyclopropyl-8-methoxy-5-pyrimidin-5-yl-[1,2,4]triazolo[1,5-a]pyridine]
Second: COc1ccc(-c2cccnc2)n2nc(C3CC3)nc12 [Compound 118, 2-Cyclopropyl-8-methoxy-5-pyridin-3-yl-[1,2,4]triazolo[1,5-a]pyridine]
The IC50 of the first is higher: 500 to 1000 nM for the first, less than 500 nM for the second.

`COc1ccc(-c2cccc(S(C)(=O)=O)c2)n2nc(C3CC3)nc12` [Compound 112, 2-Cyclopropyl-5-(3-methanesulfonyl-phenyl)-8-methoxy-[1,2,4]triazolo[1,5-a]pyridine] and `COc1ccc(-c2cccc(NS(C)(=O)=O)c2)n2nc(C3CC3)nc12` [Compound 113, N-[3-(2-Cyclopropyl-8-methoxy-[1,2,4]triazolo[1,5-a]pyridin-5-yl)-phenyl]-methanesulfonamide] fall in the same range of IC50: 500 to 1000 nM for the first, 500 to 1000 nM for the second.

Going from `CNC(=O)c1cccc(-c2ccc(OC)c3nc(C4CC4)nn23)c1` [Compound 114, 3-(2-Cyclopropyl-8-methoxy-[1,2,4]triazolo[1,5-a]pyridin-5-yl)-N-methyl-benzamide] to `CCCCOc1cccc(-c2ccc(OC)c3nc(C4CC4)nn23)c1` [Compound 124, 5-(3-Butoxy-phenyl)-2-cyclopropyl-8-methoxy-[1,2,4]triazolo[1,5-a]pyridine], the IC50 falls from greater than 1000 nM to less than 500 nM. The second is the more potent here.

`COc1ccc(-c2ccc(S(C)(=O)=O)cc2)n2nc(C3CC3)nc12` [Compound 120, 2-Cyclopropyl-5-(4-methanesulfonyl-phenyl)-8-methoxy-[1,2,4]triazolo[1,5-a]pyridine] and `COc1ccc(-c2ccc(CNS(C)(=O)=O)cc2)n2nc(C3CC3)nc12` [Compound 130, N-[4-(2-Cyclopropyl-8-methoxy-[1,2,4]triazolo[1,5-a]pyridin-5-yl)-benzyl]-methanesulfonamide] cannot be ordered by IC50: greater than 1000 nM for the first, greater than 1000 nM for the second.

`COc1ccc(-c2ccncc2)n2nc(C3CC3)nc12` [Compound 126, 2-Cyclopropyl-8-methoxy-5-pyridin-4-yl-[1,2,4]triazolo[1,5-a]pyridine] and `COc1ccc(-c2ccc(C#N)cc2)n2nc(C3CC3)nc12` [Compound 132, 4-(2-Cyclopropyl-8-methoxy-[1,2,4]triazolo[1,5-a]pyridin-5-yl)-benzonitrile] cannot be ordered by IC50: less than 500 nM for the first, less than 500 nM for the second.

First: COc1ccc(-c2ccc(Cl)cc2Cl)n2nc(C3CC3)nc12 [Compound 127, 2-Cyclopropyl-5-(2,4-dichloro-phenyl)-8-methoxy-[1,2,4]triazolo[1,5-a]pyridine]
Second: COc1ccc(-c2ccc(CNC(C)=O)cc2)n2nc(C3CC3)nc12 [Compound 129, N-[4-(2-Cyclopropyl-8-methoxy-[1,2,4]triazolo[1,5-a]pyridin-5-yl)-benzyl]-acetamide]
The IC50 of the first is lower: 500 to 1000 nM for the first, greater than 1000 nM for the second.

`COc1ccc(-c2ccc(S(=O)(=O)N3CCOCC3)cc2)n2nc(C3CC3)nc12` [Compound 128, 2-Cyclopropyl-8-methoxy-5-[4-(morpholine-4-sulfonyl)-phenyl]-[1,2,4]triazolo[1,5-a]pyridine] and `COc1ccc(-c2ccc(S(=O)(=O)NCCO)cc2)n2nc(C3CC3)nc12` [Compound 134, 4-(2-Cyclopropyl-8-methoxy-[1,2,4]triazolo[1,5-a]pyridin-5-yl)-N-(2-hydroxy-ethyl)-benzenesulfonamide] cannot be ordered by IC50: greater than 1000 nM for the first, greater than 1000 nM for the second.

First: COC(=O)CCc1ccc(-c2ccc(OC)c3nc(C4CC4)nn23)cc1 [Compound 133, 3-[4-(2-Cyclopropyl-8-methoxy-[1,2,4]triazolo[1,5-a]pyridin-5-yl)-phenyl]-propionic acid methyl ester]
Second: COc1ccc(N2CCCCC2)n2nc(C3CC3)nc12 [Compound 143, 2-Cyclopropyl-8-methoxy-5-piperidin-1-yl-[1,2,4]triazolo[1,5-a]pyridine]
The IC50 of the first is higher: 500 to 1000 nM for the first, less than 500 nM for the second.

same assay, conditions: Example 53; PDE4 assay as in example 52; read-out: PDE4 IC50 range

Compared with `CC(=O)c1cccc(-c2ccc(O)c3nc(C4CC4)nn23)c1` [Compound 144, 1-[3-(2-Cyclopropyl-8-hydroxy-[1,2,4]triazolo[1,5-a]pyridin-5-yl)-phenyl]-ethanone], `COc1ccc(-c2cc(C#N)ccn2)n2nc(C3CC3)nc12` [Compound 145, 2-(2-Cyclopropyl-8-methoxy-[1,2,4]triazolo[1,5-a]pyridin-5-yl)-isonicotinonitrile] is higher in IC50: less than 500 nM for the first, 500 to 1000 nM for the second. The first is the more potent here.
